These results are taken from PMC9694965, “Design of 4-Substituted Sulfonamidobenzoic Acid Derivatives Targeting Coxsackievirus B3” (Life, 2022).

What is called CC50 is the concentration that lowers cell viability or growth by half. High values mean better tolerance by the cells, low ones harm at low concentration. The melting point is the temperature, or range, at which the solid turns liquid.

Some results are limits rather than exact numbers.

One data set relates to CVB3 Nancy. Nature of the data set: Cytoprotection assay (MTT) in Vero cells infected with CVB3 Nancy. The note with it: for EC50: Enterovirus B, Vero cells infected with CVB3 Nancy at m.o.i. 0.001, 72 h, MTT, read-out: EC50 (50% cytoprotective concentration); for SI (selectivity index, ratio CC50/IC50): cytoprotection assay, CC50 72 h / EC50. The class given is cell-based, Coxsackievirus B3. Here is the method:
(§1) Vero cells were seeded in 96-well plates in 24 h before the assay. On the assay day, the cells were washed with saline and tested compounds in appropriate concentrations (300–3 μg/mL) in MEM without FBS were added to cells. No compounds were added to virus control wells. The plates were incubated for 1 h at 37 °C at 5% CO2. The cells were then infected with CVB3 Nancy (m.o.i range of 1–0.001) and incubated for 72 h at 37 °C at 5% CO2. No virus was added to the cytotoxicity control wells. Cell viability was then assessed using an MTT test with the following procedure. The cells were washed with saline, and a solution of 3-(4,5-dimethylthiazolyl-2) 2,5-diphenyltetrazolium bromide (ICN Biochemicals Inc., Aurora, OH, USA) ([…]) in MEM was added to the wells (100 µL per well). After 2 h of incubation at 37 °C in 5% CO2, the supernatant from wells was discarded, and the formazan residue was dissolved in DMSO (100 µL per well). The optical density of cells was then measured on a Multiskan multifunctional reader (Thermo Fisher Scientific, Shanghai, China) at a wavelength of 540 nm.
The cytoprotective activity of compounds was considered to be their ability to increase the values of OD compared to control wells (using only a virus, without drugs). Based on the results obtained, the values of IC50, i.e., the concentration of compounds that result in 50% cells protection were calculated for m.o.i. 0.001 using GraphPad Prism 6.01 software.

A short description of data set [1]: Cytotoxicity assay (MTT) in Vero cells. Conditions: African green monkey; for CC50 at 72 h: 72 h incubation with the compound only; for CC50 at 24 h: 24 h incubation with the compound only. The class given is cell-based. Here is the method: as §1
The microtetrazolium test (MTT) was used to study the cytotoxicity of the compounds. The permissive cell line Vero was seeded in 96-well plates in Eagles minimal essential medium (MEM) supplemented with 10% FBS. After 24 h, the media were removed, and the wells were washed with saline. Compounds were dissolved in DMSO, and a series of two-fold dilutions of each compound in MEM without FBS were prepared and added to the cells in triplicates. […] The MTT was then performed as described above. Next, the optical density of cells was measured on a Multiskan multifunctional reader (Thermo Fisher Scientific, Shanghai, China) at a wavelength of 540 nm and plotted against the concentration of the compounds to generate the dose–response curve. The 50% cytotoxic dose (CC50) of each compound (i.e., the compound concentration that causes the death of 50% of cells in a culture, or decreases the optical density twice, as compared to the control wells) was calculated using a four-parameter logistic nonlinear regression model (GraphPad Prism 6.01).

Data set [2] concerns Coxsackievirus B3 (Nancy). Nature of the data set: Viral yield reduction assay in Vero cells. The class given is cell-based. Conditions: for IC50: Enterovirus B, B3 / CVB3, viral yield reduction, Vero cells, CVB3 Nancy at m.o.i. 0.01, 24 h, read-out: IC50 (50% virus-inhibiting concentration). As for the experimental part: Coxsackievirus B3 (CVB3, strain Nancy) was obtained from the collection of viruses of the Pasteur Institute (St. Petersburg, Russia). The permissive cell line Vero (ATCC #CCL-81) was used in the study. Infectious titers (in a 50%-tissue culture infection dose, TCID50) were determined in Vero cells for CVB3 by endpoint dilution assay using the following procedure. Permissive cells were seeded into 96-wells plates in Eagles minimal essential medium (MEM) supplemented with 5% fetal bovine serum (FBS). After 24 h, the medium was aspirated, the wells were washed with saline, fresh MEM without FBS was added to the wells and the cells were infected with serial tenfold dilutions of virus stocks (100 µL per well, 4 wells for each dilution). The plates were incubated at +37 °C in 5% CO2 and observed daily for cytopathic effect (CPE). After 72 h the viral titer was calculated in TCID50 using the method of Spearmen-Carber.
The antiviral activity of the compounds was evaluated using viral yield reduction assay. The respective permissive cell line Vero was seeded in MEM supplemented with 5% FBS in 24-well plates. When the cell confluence reached 100%, the compounds tested were dissolved in DMSO, and a series of three-fold dilutions of each compound in MEM without FBS was added to the cells, and incubated at 37 °C in 5% CO2. After 1 h, the media were discarded; equal volumes of fresh serial dilutions of each compound and viral suspension in MEM without FBS at […] were added. In control wells, only MEM without FBS was added. No compounds were added in the virus control wells. The plates were incubated at 4 °C for 1 h. The unbound virus was then washed away and, again, three-fold dilutions of each compound (the final concentration 50–0.6 µg/mL) in MEM without FBS were added to the wells. After 24 h of incubation at 37 °C in 5% CO2, the infectious titer of viral progeny (in TCID50) for each compound concentration, cell control, and virus control wells were determined in permissive cell lines by endpoint dilution assay as described above.
The titer of virus progeny was plotted against log concentration of the compounds tested to generate the dose–response curve. The 50% inhibition concentration (IC50) of each compound tested (i.e., the compound concentration that decreases the infectious viral progeny titer twice, as compared to the control wells) was calculated using a four-parameter logistic nonlinear regression model (GraphPad Prism 6.01).

For the compound `CCOC(=O)c1ccc(NS(=O)(=O)c2ccc(N3C(=O)c4ccccc4C3=O)cc2)cc1` [Compound 2b, Ethyl 4-(4-(1,3-dioxoisoindolin-2-yl)phenylsulfonamido)benzoate], in the data set with CVB3 Nancy, the EC50 was over 444 µM and the “SI (selectivity index, ratio CC50/IC50)” value was under 1. The CC50 at 72 h in data set [1] turned out to be 40 ± 4.12 µM.
For `NC(=O)c1ccc(NS(=O)(=O)c2ccc(N3C(=O)c4ccccc4C3=O)cc2)cc1` [Compound 2c, 4-(4-(1,3-Dioxoisoindolin-2-yl)phenylsulfonamido)benzamide], the melting point is 240 to 242 °C. In the data set on CVB3 Nancy, the EC50 is over 475 µM and the “SI (selectivity index, ratio CC50/IC50)” value is under 1. This compound also had a CC50 at 72 h in data set [1] of 472 ± 38.2 µM.
On the same counts, the results for `N#Cc1ccc(NS(=O)(=O)c2ccc(N3C(=O)c4ccccc4C3=O)cc2)cc1` [Compound 2d, N-(4-Cyanophenyl)-4-(1,3-dioxoisoindolin-2-yl)benzenesulfonamide] are 224 to 226 °C, 744 ± 67.3 µM, under 1 and 625 ± 57.5 µM.
Regarding `NS(=O)(=O)c1ccc(NS(=O)(=O)c2ccc(N3C(=O)c4ccccc4C3=O)cc2)cc1` [Compound 2e, 4-(1,3-Dioxoisoindolin-2-yl)-N-(4-sulfamoylphenyl)benzenesulfonamide], the melting point is 261 to 263 °C. In addition, in the data set with CVB3 Nancy, the EC50 was over 437 µM and the “SI (selectivity index, ratio CC50/IC50)” value was under 1. Moreover, the CC50 at 72 h in data set [1] stood at 437 ± 35.1 µM.
For `CC(=O)Nc1ccc(NS(=O)(=O)c2ccc(N3C(=O)c4ccccc4C3=O)cc2)cc1` [Compound 2f], in that order: 220 to 222 °C, over 689 µM, under 1 and 181 ± 19.2 µM.
`O=C(O)C1CCN(S(=O)(=O)c2ccc(N3C(=O)c4ccccc4C3=O)cc2)CC1` [Compound 2g, 1-((4-(1,3-Dioxoisoindolin-2-yl)phenyl)sulfonyl)piperidine-4-carboxylic acid] had a melting point of 207 to 210 °C. In the data set on CVB3 Nancy, the EC50 turned out to be 12.3 ± 2.07 µM and the “SI (selectivity index, ratio CC50/IC50)” value is over 18.5. The compound also returned a CC50 at 72 h in data set [1] of over 228 µM.
Turning to `O=C(O)CCCNS(=O)(=O)c1ccc(N2C(=O)c3ccccc3C2=O)cc1` [Compound 2i, 4-(4-(1,3-Dioxoisoindolin-2-yl)phenylsulfonamido)butanoic acid], in the data set on CVB3 Nancy, the EC50 is under 28.6 µM and the “SI (selectivity index, ratio CC50/IC50)” value is over 10. For the same compound, the IC50 in data set [2] turned out to be 37.9 ± 1.08 µM. The “SI (selectivity index, ratio CC50/IC50)” value in data set [2] (viral yield reduction assay, CC50 24 h / IC50) is listed as 33. In data set [1], this compound came in with a CC50 at 24 h of 1260 ± 110 µM and a CC50 at 72 h of 283 ± 31.1 µM.
Take `CCOC(=O)c1ccc(NS(=O)(=O)c2ccc(NC(=O)c3ccccc3C(=O)O)cc2)cc1` [Compound 3, 2-((4-(N-(4-(Ethoxycarbonyl)phenyl)sulfamoyl)phenyl)carbamoyl)benzoic acid]: in the data set on CVB3 Nancy, the EC50 was over 427 µM and the “SI (selectivity index, ratio CC50/IC50)” value is over 1. The compound also gave a CC50 at 72 h in data set [1] of over 640 µM.
The compound `O=C(O)c1ccc(NS(=O)(=O)c2ccc(N3C(=O)C4CC=CCC4C3=O)cc2)cc1` (stereo not drawn) [Compound 7b, 4-(4-(1,3-Dioxo-3a,4,7,7a-tetrahydro-1H-isoindol-2(3H)-yl)phenylsulfonamido)benzoic acid] yielded a melting point of 250 to 252 °C. In the data set with CVB3 Nancy, the EC50 was under 8.67 µM and the “SI (selectivity index, ratio CC50/IC50)” value was over 54.6. The IC50 in data set [2] was found to be 11.1 ± 0.16 µM. Moreover, in data set [1], it took 933 ± 75.1 µM to reach half-maximal cytotoxicity (CC50 at 24 h) and half-maximal cytotoxicity (CC50 at 72 h) was put at 474 ± 38.5 µM.
`O=C(O)c1ccc(NS(=O)(=O)c2ccc(N3C(=O)c4cccc5cccc(c45)C3=O)cc2)cc1` [Compound 7e, 4-(4-(1,3-Dioxo-1H-benzo[de]isoquinolin-2(3H)-yl)phenylsulfonamido)benzoic acid] displayed a melting point of 284 to 286 °C. In addition, in the data set with CVB3 Nancy, the EC50 is over 635 µM and the “SI (selectivity index, ratio CC50/IC50)” value is reported as under 1. Besides, in data set [1], the CC50 at 72 h worked out at 531 ± 48.4 µM.
